Source: patent US20210038579A1, “Treatment Of Patients With Classic Fabry Disease” (Amicus Therapeutics, Inc., priority 2018, published 2021)
Substitutions are numbered along the chain they refer to. “And” between values parts separate entries of the source, which are not always exact repeats. Equal values may be shown once.

How the values were obtained:
Assay in all cases: HEK assay: α-Gal A activity in HEK-293 cell lysate with migalastat
Type in all cases: cell-based
[1] = target: T1, α-Gal A mutant form p.Asp322Glu (c.966 C > A) (Homo sapiens, UniProt P06280, D322E)
T1 construct: expressed in transfected cells; host or cells: HEK-293
T1 sequence (P06280 32-429 D322E): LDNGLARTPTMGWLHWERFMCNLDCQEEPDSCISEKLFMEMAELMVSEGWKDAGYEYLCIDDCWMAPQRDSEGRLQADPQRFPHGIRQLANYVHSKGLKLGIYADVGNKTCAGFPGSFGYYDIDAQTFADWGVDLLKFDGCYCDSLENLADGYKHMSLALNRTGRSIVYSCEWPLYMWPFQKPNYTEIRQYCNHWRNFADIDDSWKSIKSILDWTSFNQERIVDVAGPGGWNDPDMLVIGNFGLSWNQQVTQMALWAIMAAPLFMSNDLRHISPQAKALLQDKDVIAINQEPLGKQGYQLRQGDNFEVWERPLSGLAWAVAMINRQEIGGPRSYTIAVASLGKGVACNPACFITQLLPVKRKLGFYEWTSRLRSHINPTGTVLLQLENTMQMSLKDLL
Procedure, shortened: (§1)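 HEK-293 cells are transfected transiently with cDNA for each missense or small in-frame indel α-Gal A mutant. They are cultured ±migalastat across 17 nM to 1 mM over 4 to 5 days, after which lysate enzyme is quantified fluorogenically (4-MU-α-Gal) or by immunoblot.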

[2] = target: T2, α-Gal A mutant form p.Gly183Asp (c.548 G > A) (Homo sapiens, UniProt P06280, G183D)
T2 construct: expressed in transfected cells; host or cells: HEK-293
T2 sequence (P06280 32-429 G183D): T1 sequence (P06280 32-429 D322E) with G152D, E291D
Procedure, shortened: as §1

[3] = target: T3, α-Gal A mutant form p.Ile270Thr (c.809 T > C) (Homo sapiens, UniProt P06280, I270T)
T3 construct: expressed in transfected cells; host or cells: HEK-293
T3 sequence (P06280 32-429 I270T): T1 sequence (P06280 32-429 D322E) with I239T, E291D
Procedure, shortened: as §1

[4] = target: T4, α-Gal A mutant form p.Phe 295Cys (c.884 T > G) (Homo sapiens, UniProt P06280, F295C)
T4 construct: expressed in transfected cells; host or cells: HEK-293
T4 sequence (P06280 32-429 F295C): T1 sequence (P06280 32-429 D322E) with F264C, E291D
Procedure, shortened: as §1

[5] = target: T5, α-Gal A mutant form p.Ile317Thr (c.950 T > C) (Homo sapiens, UniProt P06280, I317T)
T5 construct: expressed in transfected cells; host or cells: HEK-293
T5 sequence (P06280 32-429 I317T): T1 sequence (P06280 32-429 D322E) with I286T, E291D
Procedure, shortened: as §1

[6] = +10 μM migalastat, HEK-293 cell lysate, mean ± SEM, n = 20
[7] = HEK293, 10 μM migalastat minus baseline, read-out: Absolute increase at 10 μM (% WT)

## OC[C@H]1NC[C@H](O)[C@@H](O)[C@H]1O [migalastat]
[1]; 10 μM migalastat
  α-Gal A activity at 10 μM (fold over baseline): 3.98 fold over baseline
[1]; [6]
  +Migalastat α-Gal A activity: 9554 ± 667 nmol/mg/h
  +Migalastat α-Gal A activity % WT: 26.8 ± 1.3 % WT
[1]; [7]
  activation at 10 µM: 20%
[2]; 10 μM migalastat
  α-Gal A activity at 10 μM (fold over baseline): 29.31 fold over baseline
[2]; [6]
  +Migalastat α-Gal A activity: 6074 ± 212 nmol/mg/h
  +Migalastat α-Gal A activity % WT: 19.1 ± 1.0 % WT and 19.1 ± 10 % WT
[2]; [7]
  activation at 10 µM: 18.4%
[3]; 10 μM migalastat
  α-Gal A activity at 10 μM (fold over baseline): 6.73 fold over baseline
[3]; [6]
  +Migalastat α-Gal A activity: 12416 ± 377 nmol/mg/h
  +Migalastat α-Gal A activity % WT: 42.8 ± 3.0 % WT
[3]; [7]
  activation at 10 µM: 36.5%
[4]; 10 μM migalastat
  α-Gal A activity at 10 μM (fold over baseline): 4.22 fold over baseline
[4]; [6]
  +Migalastat α-Gal A activity: 5051 ± 190 nmol/mg/h
  +Migalastat α-Gal A activity % WT: 14.5 ± 0.6 % WT
[4]; [7]
  activation at 10 µM: 11.1%
[5]; 10 μM migalastat
  α-Gal A activity at 10 μM (fold over baseline): 3.40 fold over baseline
[5]; [6]
  +Migalastat α-Gal A activity: 7812 ± 530 nmol/mg/h
  +Migalastat α-Gal A activity % WT: 23.6 ± 1.0 % WT
[5]; [7]
  activation at 10 µM: 17%
